From patent US11713318B2, “Short conjugated oligoelectrolytes and uses thereof” (The Regents Of The University Of California, priority 2018, dated 2023)

Assays:
Type in all cases: cell-based
[1] = test system: Y. pseudotuberculosis; assay: microbe, parasite or virus in culture; conditions: Yersinia pseudotuberculosis
[2] = test system: N. gonorrhoeae; assay: MIC panel of pathogens, Table 4; conditions: Neisseria gonorrhoeae
[3] = test system: S. aureus (MSSA); assay: MIC panel of pathogens, Table 4; conditions: Staphylococcus aureus
[4] = Cytotoxicity tested by Eurofins Pharma Discovery Services; conditions: human, Hep G2 cells; Hep G2, Eurofins; at the concentration given as IC50 bound; read-out: cell viability at the highest or lowest test concentration

## CCCCCC[N+](C)(C)CCCCCCOc1cc(/C=C/c2cc(OCCCCCC[N+](C)(C)CCCCCC)cc(OCCCCCC[N+](C)(C)CCCCCC)c2)cc(OCCCCCC[N+](C)(C)CCCCCC)c1 [Formula E]
[1]
  MIC: 1 µg/mL
[2]
  MIC: 0.5 µg/mL
[3]
  MIC: 1 µg/mL

## C[N+](C)(C)CCCCOc1cc(/C=C/c2ccc(/C=C/c3cc(OCCCC[N+](C)(C)C)cc(OCCCC[N+](C)(C)C)c3)cc2)cc(OCCCC[N+](C)(C)C)c1.[I-].[I-].[I-].[I-] [Formula F]
[4]
  viability: 70%
